Experimental data as given in US11130769B2 (Prelude Therapeutics Incorporated, priority 2018, dated 2021).

Assays:
MCL-1 = MCL-1 (Homo sapiens (Human), UniProt Q07820); assay: Cell free Mcl-1:Bim affinity assay (fluorescence polarization competition); format: binding; details: 15 nM MCL-1, 5 nM FITC-Bim, 1 hour at room temperature; class symbols; read-out: BIM_Ki
In short: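 Fluorescence polarization competition: 10-point 3-fold compound dilutions displaced 5 nM FITC-Bim from 15 nM MCL-1 over 1 h at room temperature. Ki was derived from the fitted IC50 using the Nikolovska-Coleska equation, with percent inhibition normalized to DMSO and positive controls.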

H929 cells = assay: Cell viability assay (H929 10 FBS); format: cell-based; details: Homo sapiens, NCI-H929, 24 hours, read-out: H929_10FBS IC50
In short: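 ATP-based luminescence (CellTiter-Glo or ATPlite 1 Step, 30-60 min at RT) gauged viability of H929 myeloma cells after 24 h compound treatment at 37 °C. Cells plated at 4000 per well in 10% FBS RPMI 1640 supplemented with pyruvate, HEPES and glucose.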

Chain of MCL-1 (Q07820 whole entry): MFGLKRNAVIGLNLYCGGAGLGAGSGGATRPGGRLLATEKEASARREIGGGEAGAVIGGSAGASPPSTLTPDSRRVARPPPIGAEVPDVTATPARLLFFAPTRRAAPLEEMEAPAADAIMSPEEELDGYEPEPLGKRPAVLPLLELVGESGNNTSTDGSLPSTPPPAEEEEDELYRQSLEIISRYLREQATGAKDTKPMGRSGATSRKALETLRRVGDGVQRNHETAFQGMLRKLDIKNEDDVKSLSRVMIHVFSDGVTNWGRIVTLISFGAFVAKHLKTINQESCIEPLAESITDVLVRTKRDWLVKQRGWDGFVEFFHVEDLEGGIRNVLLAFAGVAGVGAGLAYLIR

| Ki (MCL-1) | IC50 (H929 cells) | SMILES |
| --- | --- | --- |
| 1 to 100 nM | > 1000 nM | CO[C@H]1CCCCC(=O)NS(=O)(=O)c2ccc3c(c2)N(C[C@@H]2CC[C@H]21)C[C@@]1(CCCc2cc(Cl)ccc21)CO3 [Example 77, (3R,6R,7S,21S)-6′-Chloro-7-methoxy-14,14-dioxo-spiro[19-oxa-14-thia-1,13-diazatetracyclo[13.7.2.03,6.018,23]tetracosa-15,17,23-triene-21,1′-tetralin]-12-one] |
| 1 to 100 nM | > 1000 nM | CO[C@@H]1/C=C/C[C@H](C)[C@@H](C)C(=O)NS(=O)(=O)c2ccc3c(c2)N(C[C@@H]2CC[C@H]21)C[C@@]1(CCCc2cc(Cl)ccc21)CO3 [Example 78, (3R,6R,7R,8E,1S,12R,22S)-6′-Chloro-7-methoxy-11,12-dimethyl-15,15-dioxo-spiro[20-oxa-15-thia-1,14-diazatetracyclo[14.7.2.03,6.019,24]pentacosa-8,16,18,24-tetraene-22,1′-tetralin]-13-one] |
| 1 to 100 nM | > 1000 nM | CO[C@H]1/C=C/C[C@H](C)[C@@H](C)C(=O)NS(=O)(=O)c2ccc3c(c2)N(C[C@@H]2CC[C@H]21)C[C@@]1(CCCc2cc(Cl)ccc21)CO3 [Example 79, (3R,6R,7S,8E,11S,12R,22S)-6′-Chloro-7-methoxy-11,12-dimethyl-15,15-dioxo-spiro[20-oxa-15-thia-1,14-diazatetracyclo[14.7.2.03,6.019,24]pentacosa-8,16,18,24-tetraene-22,1′-tetralin]-13-one] |
| 1 to 100 nM | > 1000 nM | CO[C@H]1/C=C/CCCC(=O)NS(=O)(=O)c2ccc3c(c2)N(C[C@@H]2CC[C@H]21)C[C@@]1(CCCc2cc(Cl)ccc21)CO3 [Example 80, (3R,6R,7S,8E,22S)-6′-Chloro-7-methoxy-15,15-dioxo-spiro[20-oxa-15-thia-1,14-diazatetracyclo[14.7.2.03,6.019,24]pentacosa-8,16(25),17,19(24)-tetraene-22,1′-tetralin]-13-one] |
| 1 to 100 nM | > 1000 nM | CO[C@H]1/C=C/CC[C@@H](C)C(=O)NS(=O)(=O)c2ccc3c(c2)N(C[C@@H]2CC[C@H]21)C[C@@]1(CCCc2cc(Cl)ccc21)CO3 [Example 81, (3R,6R,7S,8E,12R,22S)-6′-Chloro-7-methoxy-12-methyl-15,15-dioxo-spiro[20-oxa-15-thia-1,14-diazatetracyclo[14.7.2.03,6.019,24]pentacosa-8,16(25),17,19(24)-tetraene-22,1′-tetralin]-13-one] |
| 1 to 100 nM | > 1000 nM | CO[C@H]1/C=C/C[C@H](C)CC(=O)NS(=O)(=O)c2ccc3c(c2)N(C[C@@H]2CC[C@H]21)C[C@@]1(CCCc2cc(Cl)ccc21)CO3 [Example 82, (3R,6R,7S,8E,11S,22S)-6′-Chloro-7-methoxy-11-methyl-15,15-dioxo-spiro[20-oxa-15-thia-1,14-diazatetracyclo[14.7.2.03,6.019,24]pentacosa-8,16(25),17,19(24)-tetraene-22,1′-tetralin]-13-one] |
| 1 to 100 nM | > 1000 nM | CO[C@H]1/C=C/CCCCC(=O)NS(=O)(=O)c2ccc3c(c2)N(C[C@@H]2CC[C@H]21)C[C@@]1(CCCc2cc(Cl)ccc21)CO3 [Example 83, (3R,6R,7S,8E,23S)-6′-Chloro-7-methoxy-16,16-dioxo-spiro[21-oxa-16-thia-1,15-diazatetracyclo[15.7.2.03,6.020,25]hexacosa-8,17,19,25-tetraene-23,1′-tetralin]-14-one] |
| 1 to 100 nM | > 1000 nM | CO[C@H]1/C=C/C[C@@H](C)CC(=O)NS(=O)(=O)c2ccc3c(c2)N(C[C@@H]2CC[C@H]21)C[C@@]1(CCCc2cc(Cl)ccc21)CO3 [Example 84, (3R,6R,7S,8E,11R,22S)-6′-Chloro-7-methoxy-11-methyl-15,15-dioxo-spiro[20-oxa-15-thia-1,14-diazatetracyclo[14.7.2.03,6.019,24]pentacosa-8,16(25),17,19(24)-tetraene-22,1′-tetralin]-13-one] |
| 1 to 100 nM | > 1000 nM | CO[C@H]1/C=C/CC[C@H](C)C(=O)NS(=O)(=O)c2ccc3c(c2)N(C[C@@H]2CC[C@H]21)C[C@@]1(CCCc2cc(Cl)ccc21)CO3 [Example 85, (3R,6R,7S,8E,12S,22S)-6′-Chloro-7-methoxy-12-methyl-15,15-dioxo-spiro[20-oxa-15-thia-1,14-diazatetracyclo[14.7.2.03,6.019,24]pentacosa-8,16(25),17,19(24)-tetraene-22,1′-tetralin]-13-one] |
| 1 to 100 nM | > 1000 nM | CO[C@@H]1/C=C/CCC2(CCC2)C(=O)NS(=O)(=O)c2ccc3c(c2)N(C[C@@H]2CC[C@H]21)C[C@@]1(CCCc2cc(Cl)ccc21)CO3 [Example 86, (3R,6R,7R,8E,22S)-6′-Chloro-7-methoxy-12,12-(1,3-propylene)-15,15-dioxo-spiro[[20]oxa-15-thia-1,14-diazatetracyclo[14.7.2.03,6.019,24]pentacosa[8,16(25),17,19(24)]tetraene-22,1′-tetralin]-13-one] |
| < 1 nM | < 1000 nM | COC[C@H]1C(=O)NS(=O)(=O)c2ccc3c(c2)N(C[C@@H]2CC[C@H]2[C@H](OC)/C=C/C[C@@H]1C)C[C@@]1(CCCc2cc(Cl)ccc21)CO3 [Example 87, (3R,6R,7R,8E,11S,12S,22S)-6′-Chloro-7-methoxy-12-(methoxymethyl)-11-methyl-15,15-dioxo-spiro[20-oxa-15-thia-1,14-diazatetracyclo[14.7.2.03,6.019,24]pentacosa-8,16,18,24-tetraene-22,1′-tetralin]-13-one] |
| < 1 nM | < 1000 nM | COC[C@H]1C(=O)NS(=O)(=O)c2ccc3c(c2)N(C[C@@H]2CC[C@H]2[C@H](O)/C=C/C[C@@H]1C)C[C@@]1(CCCc2cc(Cl)ccc21)CO3 [Example 88, (3R,6R,7R,8E,11S,12S,22S)-6′-Chloro-7-hydroxy-12-(methoxymethyl)-11-methyl-15,15-dioxo-spiro[20-oxa-15-thia-1,14-diazatetracyclo[14.7.2.03,6.019,24]pentacosa-8,16,18,24-tetraene-22,1′-tetralin]-13-one] |
| 1 to 100 nM | > 1000 nM | COCC[C@H]1C(=O)NS(=O)(=O)c2ccc3c(c2)N(C[C@@H]2CC[C@H]2[C@H](OC)/C=C/C[C@@H]1C)C[C@@]1(CCCc2cc(Cl)ccc21)CO3 [Example 89, (3R,6R,7R,8E,11S,12R,22S)-6′-Chloro-7-methoxy-12-(2-methoxyethyl)-1-methyl-15,15-dioxo-spiro[20-oxa-15-thia-1,14-diazatetracyclo[14.7.2.03,6.019,24]pentacosa-8,16,18,24-tetraene-22,1′-tetralin]-13-one] |
| < 1 nM | > 1000 nM | CO[C@@H]1/C=C/C[C@H](C)[C@@H](CC(=O)N2CC(F)(F)C2)C(=O)NS(=O)(=O)c2ccc3c(c2)N(C[C@@H]2CC[C@H]21)C[C@@]1(CCCc2cc(Cl)ccc21)CO3 [Example 90, (3R,6R,7R,8E,11S,12R,22S)-6′-Chloro-12-[2-(3,3-difluoroazetidin-1-yl)-2-oxo-ethyl]-7-methoxy-11-methyl-15,15-dioxo-spiro[20-oxa-15-thia-1,14-diazatetracyclo[14.7.2.03,6.019,24]pentacosa-8,16,18,24-tetraene-22,1′-tetralin]-13-one] |
| 1 to 100 nM | > 1000 nM | CO[C@@H]1/C=C/C[C@H](C)[C@@H](CC(=O)N(C)C)C(=O)NS(=O)(=O)c2ccc3c(c2)N(C[C@@H]2CC[C@H]21)C[C@@]1(CCCc2cc(Cl)ccc21)CO3 [Example 91, 2-[(3R,6R,7R,8E,11S,12R,22S)-6′-Chloro-7-methoxy-11-methyl-13,15,15-trioxo-spiro[20-oxa-15-thia-1,14-diazatetracyclo[14.7.2.03,6.019,24]pentacosa-8,16,18,24-tetraene-22,1′-tetralin]-12-yl]-N,N-dimethyl-acetamide] |
| < 1 nM | < 1000 nM | CO[C@@H]1/C=C/C[C@H](C)[C@@H](CC(=O)N2CCOCC2)C(=O)NS(=O)(=O)c2ccc3c(c2)N(C[C@@H]2CC[C@H]21)C[C@@]1(CCCc2cc(Cl)ccc21)CO3 [Example 92, (3R,6R,7R,8E,11S,12R,22S)-6′-Chloro-7-methoxy-11-methyl-12-(2-morpholino-2-oxo-ethyl)-15,15-dioxo-spiro[20-oxa-15-thia-1,14-diazatetracyclo[14.7.2.03,6.019,24]pentacosa-8,16,18,24-tetraene-22,1′-tetralin]-13-one] |
| 1 to 100 nM | > 1000 nM | COCCOC[C@H]1C(=O)NS(=O)(=O)c2ccc3c(c2)N(C[C@@H]2CC[C@H]2[C@H](OC)/C=C/C[C@@H]1C)C[C@@]1(CCCc2cc(Cl)ccc21)CO3 [Example 93, (3R,6R,7R,8E,11S,12S,22S)-6′-chloro-7-methoxy-12-(2-methoxyethoxymethyl)-11-methyl-15,15-dioxo-spiro[20-oxa-15-thia-1,14-diazatetracyclo[14.7.2.03,6.019,24]pentacosa-8,16,18,24-tetraene-22,1′-tetralin]-13-one] |
| < 1 nM | > 1000 nM | CO[C@@H]1/C=C/C[C@H](C)[C@@H](CO)C(=O)NS(=O)(=O)c2ccc3c(c2)N(C[C@@H]2CC[C@H]21)C[C@@]1(CCCc2cc(Cl)ccc21)CO3 [Example 94, (3R,6R,7R,8E,11S,12S,22S)-6′-Chloro-12-(hydroxymethyl)-7-methoxy-11-methyl-15,15-dioxo-spiro[20-oxa-15-thia-1,14-diazatetracyclo[14.7.2.03,6.019,24]pentacosa-8,16,18,24-tetraene-22,1′-tetralin]-13-one] |
